Measurements reported in patent publication US6489449B2, “Peptides for inhibition of HIV infection” (priority 2000, dated 2002).
Where no end group is shown, it is not given here.

Assay: Secondary structure analysis by circular dichroism (helical content)
Assay type: physicochemical
Settings: for Helical content (%) 30% TFE: PBS containing 30% trifluoroethanol, 50 μM peptide; for Helical content (%) PBS: PBS pH 7.0, 50 μM peptide
Method: The secondary structures of peptides synthesized in the above Example were analyzed by means of circular dichroism and the circular dichroism spectra of synthesized peptides were analyzed by using 715 CD spectropolarimeter (Jasco Co., Ltd., JAPAN). The peptides of WT(SEQ ID NO. 4), MT(SEQ ID NO. 5), Ncap-MT(SEQ ID NO. 7), Caps-WT(SEQ ID NO. 8), Caps-MT(SEQ ID NO. 9) were dissolved in PBS(pH 7.0) with 100 mM sodium phosphate and 150 mM NaCl to make the final concentration of each peptide 50 μM and were placed for spectrum analyses.
(2)Analyses of Secondary Structures of Peptides in Phosphate Buffered Saline (PBS) containing Trifluoroethanol Experiments were performed the same as described in the above Experimental Example 1 (1) with the exception that the PBS contained 30% trifluoroethanol.

Substance: APKEWMAWAREIAAYAKLIAALI-NH2 [Ncap-MT, APKEWMaWaREIaaYakLIaaLI]
- Helical content (%) 30% TFE: 68%
- Helical content (%) PBS: 69%

Substance: APKEWMEWDREINNYTSLIHSLIKQGI-NH2 [Caps-WT]
- Helical content (%) 30% TFE: 77%
- Helical content (%) PBS: 21%

Substance: WMEWDREINNYTSLIHSLI [WT]
- Helical content (%) 30% TFE: 24%
- Helical content (%) PBS: 18%
